In ChEMBL document CHEMBL4219204, “Structure-based design and discovery of potent and selective KDM5 inhibitors” (Bioorg Med Chem Lett, 2018):

Columns and labels:
[1] = target: Lysine-specific demethylase 5A/5B (Homo sapiens, UniProt P29375+Q9UGL1); assay: Inhibition of KDM5A/KDM5B in human ZR-75-1 cells assessed as increase in H3K4me3 level after 72 hrs by fluorometric immunoassay; format: cell-based
[2] = target: T1, Lysine-specific demethylase 4B (Homo sapiens, UniProt O94953); assay: Inhibition of KDM4B (unknown origin)
T1 sequence (O94953 whole entry): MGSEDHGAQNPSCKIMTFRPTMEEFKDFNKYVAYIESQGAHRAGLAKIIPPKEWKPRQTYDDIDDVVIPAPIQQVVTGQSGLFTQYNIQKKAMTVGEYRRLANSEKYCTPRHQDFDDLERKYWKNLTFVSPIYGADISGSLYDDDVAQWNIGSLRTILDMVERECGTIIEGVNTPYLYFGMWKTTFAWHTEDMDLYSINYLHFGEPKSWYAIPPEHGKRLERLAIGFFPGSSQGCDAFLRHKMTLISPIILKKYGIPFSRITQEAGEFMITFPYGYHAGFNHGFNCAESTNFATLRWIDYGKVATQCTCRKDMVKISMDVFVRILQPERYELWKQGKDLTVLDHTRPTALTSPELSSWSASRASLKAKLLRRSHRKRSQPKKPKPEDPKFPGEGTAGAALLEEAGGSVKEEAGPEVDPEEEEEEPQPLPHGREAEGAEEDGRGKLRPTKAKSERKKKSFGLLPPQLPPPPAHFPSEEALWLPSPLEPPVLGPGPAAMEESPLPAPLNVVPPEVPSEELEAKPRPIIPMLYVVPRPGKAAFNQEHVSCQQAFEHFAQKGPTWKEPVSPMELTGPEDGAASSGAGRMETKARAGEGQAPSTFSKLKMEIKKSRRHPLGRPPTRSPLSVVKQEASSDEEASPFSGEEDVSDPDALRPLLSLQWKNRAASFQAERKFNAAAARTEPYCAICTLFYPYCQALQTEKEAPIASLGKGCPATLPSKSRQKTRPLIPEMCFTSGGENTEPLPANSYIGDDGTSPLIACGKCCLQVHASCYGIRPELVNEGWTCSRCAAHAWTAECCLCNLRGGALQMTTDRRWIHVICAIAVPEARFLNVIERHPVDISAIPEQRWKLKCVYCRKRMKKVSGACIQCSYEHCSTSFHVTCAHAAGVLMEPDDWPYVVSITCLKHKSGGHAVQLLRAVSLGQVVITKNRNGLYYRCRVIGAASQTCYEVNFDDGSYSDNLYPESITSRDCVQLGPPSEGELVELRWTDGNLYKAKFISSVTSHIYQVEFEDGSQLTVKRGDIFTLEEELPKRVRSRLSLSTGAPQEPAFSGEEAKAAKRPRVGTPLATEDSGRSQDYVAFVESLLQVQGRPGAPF

[3] = target: Voltage-gated inwardly rectifying potassium channel KCNH2 (Homo sapiens, UniProt Q12809); assay: Inhibition of human ERG
Sequence of Voltage-gated inwardly rectifying potassium channel KCNH2 (Q12809 whole entry): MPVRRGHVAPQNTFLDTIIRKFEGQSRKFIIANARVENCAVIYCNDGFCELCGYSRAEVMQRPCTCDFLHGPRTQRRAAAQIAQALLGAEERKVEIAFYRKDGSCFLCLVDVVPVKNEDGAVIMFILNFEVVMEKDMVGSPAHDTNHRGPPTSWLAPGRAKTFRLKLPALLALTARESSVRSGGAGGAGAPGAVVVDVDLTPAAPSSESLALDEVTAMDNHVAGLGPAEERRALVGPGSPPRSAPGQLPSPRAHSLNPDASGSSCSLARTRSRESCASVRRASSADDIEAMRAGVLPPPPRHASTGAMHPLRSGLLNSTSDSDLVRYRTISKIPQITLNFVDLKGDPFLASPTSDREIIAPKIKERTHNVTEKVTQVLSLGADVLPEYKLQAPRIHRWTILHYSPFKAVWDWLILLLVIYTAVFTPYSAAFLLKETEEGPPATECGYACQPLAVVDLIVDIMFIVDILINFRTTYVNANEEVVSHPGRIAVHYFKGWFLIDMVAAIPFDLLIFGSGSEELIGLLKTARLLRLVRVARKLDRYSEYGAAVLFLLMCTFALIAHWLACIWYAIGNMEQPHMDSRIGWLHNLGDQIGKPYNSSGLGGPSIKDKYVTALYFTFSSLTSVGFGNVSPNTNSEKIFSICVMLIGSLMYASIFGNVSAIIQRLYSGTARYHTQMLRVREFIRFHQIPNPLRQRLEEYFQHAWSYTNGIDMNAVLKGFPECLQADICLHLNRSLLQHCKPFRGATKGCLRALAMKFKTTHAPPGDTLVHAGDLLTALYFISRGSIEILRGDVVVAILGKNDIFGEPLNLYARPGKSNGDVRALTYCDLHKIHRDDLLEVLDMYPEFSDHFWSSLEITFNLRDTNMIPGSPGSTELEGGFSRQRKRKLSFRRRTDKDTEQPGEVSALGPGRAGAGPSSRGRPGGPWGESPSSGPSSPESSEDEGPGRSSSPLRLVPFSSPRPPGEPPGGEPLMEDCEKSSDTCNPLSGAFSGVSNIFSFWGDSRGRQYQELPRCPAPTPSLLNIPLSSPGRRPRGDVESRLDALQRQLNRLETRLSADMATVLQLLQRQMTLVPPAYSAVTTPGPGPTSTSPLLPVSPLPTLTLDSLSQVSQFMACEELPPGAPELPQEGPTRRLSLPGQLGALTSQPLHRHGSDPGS

[4] = target: T2, Lysine-specific demethylase 4E (Homo sapiens, UniProt B2RXH2); assay: Inhibition of KDM4E (unknown origin)
T2 sequence (B2RXH2 whole entry): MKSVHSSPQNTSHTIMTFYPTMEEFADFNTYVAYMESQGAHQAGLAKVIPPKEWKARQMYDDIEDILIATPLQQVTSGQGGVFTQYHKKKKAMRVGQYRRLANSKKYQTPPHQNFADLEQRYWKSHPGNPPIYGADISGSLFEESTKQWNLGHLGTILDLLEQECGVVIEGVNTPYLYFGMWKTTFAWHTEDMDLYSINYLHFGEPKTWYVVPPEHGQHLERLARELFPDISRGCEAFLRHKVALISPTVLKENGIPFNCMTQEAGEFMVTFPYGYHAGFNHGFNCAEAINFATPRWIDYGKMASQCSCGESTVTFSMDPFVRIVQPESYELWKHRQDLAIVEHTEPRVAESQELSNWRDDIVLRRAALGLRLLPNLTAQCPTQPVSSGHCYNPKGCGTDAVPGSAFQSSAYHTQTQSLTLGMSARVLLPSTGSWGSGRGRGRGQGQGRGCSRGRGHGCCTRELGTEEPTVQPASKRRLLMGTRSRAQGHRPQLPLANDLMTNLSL

[5] = target: Lysine-specific demethylase 5A (Homo sapiens, UniProt P29375); assay: Inhibition of KDM5A (unknown origin) preincubated with enzyme
Sequence of Lysine-specific demethylase 5A (P29375 whole entry): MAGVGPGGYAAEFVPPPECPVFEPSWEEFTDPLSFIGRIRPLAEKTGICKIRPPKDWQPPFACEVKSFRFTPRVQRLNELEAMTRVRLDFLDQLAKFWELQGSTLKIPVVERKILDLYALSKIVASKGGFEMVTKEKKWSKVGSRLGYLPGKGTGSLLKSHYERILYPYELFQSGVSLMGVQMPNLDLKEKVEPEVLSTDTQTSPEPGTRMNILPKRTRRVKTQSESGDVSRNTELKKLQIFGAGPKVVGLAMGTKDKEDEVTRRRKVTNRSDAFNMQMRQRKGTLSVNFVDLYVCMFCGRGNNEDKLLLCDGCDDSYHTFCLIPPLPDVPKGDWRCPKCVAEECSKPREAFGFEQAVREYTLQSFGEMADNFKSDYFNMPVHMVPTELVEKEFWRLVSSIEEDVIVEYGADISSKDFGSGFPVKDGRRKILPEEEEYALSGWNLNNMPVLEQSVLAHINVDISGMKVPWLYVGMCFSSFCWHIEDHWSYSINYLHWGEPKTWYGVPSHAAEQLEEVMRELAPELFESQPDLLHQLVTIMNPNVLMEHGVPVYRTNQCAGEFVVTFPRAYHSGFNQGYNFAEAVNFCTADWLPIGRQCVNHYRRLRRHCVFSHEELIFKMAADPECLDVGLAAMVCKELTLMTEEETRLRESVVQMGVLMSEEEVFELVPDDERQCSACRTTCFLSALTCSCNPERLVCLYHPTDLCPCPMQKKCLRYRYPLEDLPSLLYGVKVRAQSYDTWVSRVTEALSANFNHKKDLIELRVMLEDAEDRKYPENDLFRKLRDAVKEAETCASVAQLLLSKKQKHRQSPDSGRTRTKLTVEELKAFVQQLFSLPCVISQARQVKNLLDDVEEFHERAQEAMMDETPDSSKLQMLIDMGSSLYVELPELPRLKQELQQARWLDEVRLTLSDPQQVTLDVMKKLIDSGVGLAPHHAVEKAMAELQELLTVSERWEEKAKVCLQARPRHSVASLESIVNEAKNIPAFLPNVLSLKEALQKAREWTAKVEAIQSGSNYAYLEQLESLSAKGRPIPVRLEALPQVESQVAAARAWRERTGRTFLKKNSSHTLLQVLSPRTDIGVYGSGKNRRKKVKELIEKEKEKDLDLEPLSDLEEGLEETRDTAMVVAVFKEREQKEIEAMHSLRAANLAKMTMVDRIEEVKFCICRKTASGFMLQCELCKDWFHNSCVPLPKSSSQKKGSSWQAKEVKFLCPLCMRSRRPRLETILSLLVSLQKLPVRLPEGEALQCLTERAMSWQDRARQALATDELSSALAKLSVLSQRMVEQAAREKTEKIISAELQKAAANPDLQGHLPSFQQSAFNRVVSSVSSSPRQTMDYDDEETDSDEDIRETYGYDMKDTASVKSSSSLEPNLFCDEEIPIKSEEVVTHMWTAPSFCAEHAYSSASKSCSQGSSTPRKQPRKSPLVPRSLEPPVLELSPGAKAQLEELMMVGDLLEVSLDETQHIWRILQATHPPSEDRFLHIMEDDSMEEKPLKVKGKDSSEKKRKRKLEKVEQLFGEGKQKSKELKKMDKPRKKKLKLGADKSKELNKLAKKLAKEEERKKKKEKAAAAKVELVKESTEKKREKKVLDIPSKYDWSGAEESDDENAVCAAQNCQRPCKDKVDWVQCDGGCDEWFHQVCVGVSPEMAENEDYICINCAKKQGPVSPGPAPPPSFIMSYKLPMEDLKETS

Q: Which EC50 [1] does the source give for `Cc1cc(Cl)ccc1COc1ccnn1-c1cc(C(=O)O)ccn1` here?
A: 0.09 µM

Q: And the IC50 [2]?
A: 0.17 µM

Q: And the “inhibition (INH)” value [3]?
A: Not Active

Q: And the IC50 [4]?
A: 0.16 µM

Q: What about the IC50 [5] of the same compound?
A: 0.013 µM
